Consider 13 compounds from patent USRE46558E1, “Compositions and methods to treat diseases characterized by cellular proliferation and angiogenesis” (Paloma Pharmaceuticals, Inc., priority 2005, dated 2017).

Read-outs that look alike come from different tables or passages of the source.

For one experiment, the system named is HUVEC quiescent. Description: Non-proliferating (quiescent) HUVEC assay. Format: cell-based. Also noted: dose or concentration left out as unconfirmed. As to conditions: Homo sapiens, 48 h, read-out: HUVECq % inhibition. From the text:
(§1) Anti-tumor (anti-proliferative for cancer cells), anti-angiogenic activity (anti-proliferative for endothelial cells) measured in vitro as inhibition of proliferation binding to estrogen receptor alpha and beta HUVEC Proliferation. Inhibition of the proliferation of human umbilical vein endothelial cells, HUVECs, is shown as one measure of anti-angiogenic activity. HUVECS and the required media complements were purchased from Cascade Biologics (Portland, Oreg.) and the growth and maintenance of the cultures was as described by the manufacturer. The proliferation assay was carried out by seeding the HUVECs in 96-well plates at a density of 1,000 cells/well in complete medium. Following a 24 h plating period, the cells were starved for 24 h in 0.5% serum before being treated with SG (“Signal Gene” now “Palomid”) angiogenic inhibitors in the presence of 10 ng/ml b-FGF or dosing ranging presence of either b-FGF or VEGF in complete medium. After 48 h, cell number was determined using a calorimetric method as described by the supplier (Promega Corp., Madison, Wis.). The results were expressed as the percentage of the maximal b-FGF or VEGF response in the absence of angiogenic inhibitors. Non-proliferating endothelial cells were assayed by growing HUVECs to quiescence in 96-well plates and treating with angiogenic inhibitors for 48 h. Initially, 5,000 cells/well were seeded and confluence was achieved the next day. The plates were incubated another 24 h to ensure growth arrest before treatment with angiogenic inhibitors. Cell number was determined as outlined above.

The test system of experiment [1] is colon carcinoma cell line, HCT-116. Description: Cancer cell line proliferation, colon. Also noted: dose or concentration left out as unconfirmed. Conditions: Homo sapiens. Format: cell-based. An excerpt: (§2) Cancer Cell Lines. Measurement of the inhibition of tumor cell growth is one measure of anti-cancer activity. Two human cancer cell lines were used to assess the effects of SG angiogenic inhibitors on the proliferation of these cells. The cell lines were MCF-7 breast cancer cells and the colon carcinoma cell line, HCT-116. All cell lines were obtained from Americans Type Tissue Culture (Manassas, Va.) and maintained in their respective media as described by the supplier. The proliferation studies were carried out essentially as described for the proliferating endothelial cells.

In experiment [2] the test system is MCF-7 breast cancer cells. The experiment in a line: Cancer cell line proliferation, breast. Format: cell-based. Also noted: dose or concentration left out as unconfirmed. As to conditions: Homo sapiens, MCF7.
Text: as §2

The subject of experiment [3] is human umbilical vein endothelial cells, HUVECs (proliferating). The experiment in a line: HUVEC proliferation assay (proliferating, b-FGF or VEGF stimulated). In kind it is cell-based. Also noted: inhibition: dose or concentration left out as unconfirmed. As to conditions: for inhibition: Homo sapiens, proliferating HUVEC, 48 h, read-out: HUVECp % inhibition.
Text: as §1

Experiment [4] has as its target T1, human estrogen receptor beta (Homo sapiens, UniProt Q92731).
T1 construct: made in house; host or cells: rabbit reticulocyte lysate, coupled in vitro transcription-translation (Promega TNT kit)
The experiment in a line: ER binding assay, [3H]estradiol competition, ERb. As to conditions: 0.5 nM [3H]estradiol, 4° C. overnight; na = no activity. From the text:
ER Binding Assay. Derivatives which bind and transduce a signal through estrogen receptors would not be considered a positive activity as such an activity could enhance cancer growth as well as induce angiogenesis. Derivatives which either have little or no binding to estrogen receptors (“ER”) would be one desired activity. […] Human cDNAs encoding ERa and ERb were used as templates to express receptor proteins in vitro. The proteins were produced with rabbit reticulocyte lysates as supplied by Promega (TNT kit) that couples transcription and translation in a single reaction. The amount of template used in each reaction was determined empirically and expression was monitored in parallel reactions where [35S]methionine was incorporated into the receptor followed by gel electrophoresis and exposure to film. Binding reactions were carried out in […] final volumes in TEG buffer (10 mM tris, pH 7.5, 1.5 mM EDTA, 10% glycerol). […] The reactions were incubated at 4° C. overnight and bound E2 was quantified by adding […] dextran-coated charcoal. […] The maximum binding was determined by competing bound E2 with only the ethanol vehicle. […] Values for percent inhibition were calculated based on the maximal E2 binding. The data were plotted and Ki values calculated using the Prism Software. […]

Setting [5] is: % of maximal b-FGF or VEGF response.

T1 sequence (Q92731 whole entry): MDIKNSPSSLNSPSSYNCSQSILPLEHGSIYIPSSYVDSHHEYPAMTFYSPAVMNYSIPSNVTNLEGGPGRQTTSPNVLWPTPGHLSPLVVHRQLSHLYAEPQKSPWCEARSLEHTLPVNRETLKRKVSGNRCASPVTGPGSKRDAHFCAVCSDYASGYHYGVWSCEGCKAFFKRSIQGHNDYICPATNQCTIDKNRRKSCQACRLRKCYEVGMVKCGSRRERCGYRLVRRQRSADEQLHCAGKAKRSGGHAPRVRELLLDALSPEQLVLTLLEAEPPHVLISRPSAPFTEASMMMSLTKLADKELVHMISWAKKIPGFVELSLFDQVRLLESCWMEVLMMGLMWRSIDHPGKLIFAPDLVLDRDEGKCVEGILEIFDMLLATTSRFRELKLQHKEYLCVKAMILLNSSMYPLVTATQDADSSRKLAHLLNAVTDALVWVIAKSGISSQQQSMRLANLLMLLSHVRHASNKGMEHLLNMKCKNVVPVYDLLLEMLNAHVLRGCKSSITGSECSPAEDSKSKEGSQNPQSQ

`COc1ccccc1COc1cc2oc(=O)c3cc(C(C)O)ccc3c2cc1OC` (stereo not shown) [Palomid 545]: the inhibition in the experiment on HUVEC quiescent turned out to be 22%; in experiment [1], 21%; in experiment [2] it was 17%; in experiment [3] (setting [5]), 100%; in experiment [3], 32%.

Take `COc1cc2c(cc1OCCc1ccccc1)oc(=O)c1cc(C(C)=O)ccc12` [Palomid 568]: the inhibition in the experiment on HUVEC quiescent was 14%; in experiment [2], < 10%; in experiment [3] (setting [5]) it was 78%. Moreover, in experiment [4], the hERb % binding was determined as 37%.

Regarding `COc1cc2c(cc1OCc1ccc(C)cc1)oc(=O)c1cc(C(C)O)ccc12` (stereo not shown) [Palomid 575], the inhibition with HUVEC quiescent amounted to 33%; in experiment [1], 10%; in experiment [2] it was 31%; in experiment [3] (setting [5]), 104%; in experiment [3] it was 41%.

As to `COc1cc2c(cc1OCc1ccc(C)cc1)oc(=O)c1cc(C(C)=O)ccc12` [Palomid 559], the inhibition amounted to 35% in the experiment with HUVEC quiescent, 17% in experiment [2], 96% in experiment [3] (setting [5]) and 72% in experiment [3].

For the compound `COc1cc(COc2cc3oc(=O)c4cc(C(C)=O)ccc4c3cc2OC)cc(OC)c1` [Palomid 546], the inhibition in the experiment on HUVEC quiescent was 23%; in experiment [2], 13%; in experiment [3] (setting [5]), 100%; in experiment [3] it was 18%.

Consider `CCc1ccc2c(c1)c(=O)oc1cc(OCc3ccc(Br)cc3)c(OC)cc12` [Palomid 560], for which the inhibition in experiment [3] (setting [5]) came to 53%.

On to `CCc1ccc2c(c1)c(=O)oc1cc(OCc3ccc(C(=O)c4ccccc4)cc3)c(OC)cc12` [Palomid 574], for which the inhibition is 29% in the experiment on HUVEC quiescent, 24% in experiment [1], 74% in experiment [3] (setting [5]) and 13% in experiment [3].

In the case of `COc1ccc(COc2cc3oc(=O)c4cc(C(C)O)ccc4c3cc2OC)cc1` (stereo not shown) [Palomid 529], the inhibition was found to be 31% in the experiment with HUVEC quiescent; 20% in experiment [1]; 32% in experiment [2]; 113% in experiment [3] (setting [5]); 65% in experiment [3]. For the same compound, in experiment [3] (FIG. 1A, bFGF-stimulated), the “inhibition of bFGF-stimulated endothelial cell proliferation” value was “inhibition”. In addition, in experiment [3] (FIG. 1B, VEGF-stimulated), the “inhibition of VEGF-stimulated endothelial cell proliferation” value is on record as “inhibition”.

As for `COc1cc2c(cc1OCc1ccccc1)oc(=O)c1cc(C(C)O)ccc12` (stereo not shown) [Palomid 393], the inhibition in the experiment on HUVEC quiescent is 21%; in experiment [1] it was 26%; in experiment [2], 11%; in experiment [3] (setting [5]), 71%.

Consider `CCc1ccc2c(c1)c(=O)oc1cc(OCc3ccccc3OC)c(OC)cc12` [Palomid 551], for which the inhibition is 25% in experiment [2] and 62% in experiment [3] (setting [5]).

For `CCc1ccc2c(c1)c(=O)oc1cc(OCc3ccc(OC)cc3)c(OC)cc12` [Palomid 550], the inhibition is 14% in the experiment on HUVEC quiescent, < 10% in experiment [1], 28% in experiment [2] and 77% in experiment [3] (setting [5]).

Turning to `CCc1ccc2c(c1)c(=O)oc1cc(OCc3ccc(C(=O)OC)cc3)c(OC)cc12` [Palomid 573], the results for the inhibition (in the experiment on HUVEC quiescent; in experiment [1]; in experiment [3] (setting [5])) were < 10%, < 10% and 145%, respectively.

Consider `COc1cc(COc2cc3oc(=O)c4cc(C(C)O)ccc4c3cc2OC)cc(OC)c1` (stereo not shown) [Palomid 547], for which the inhibition turned out to be 25% in the experiment on HUVEC quiescent; 17% in experiment [1]; 35% in experiment [2]; 106% in experiment [3] (setting [5]); 42% in experiment [3].
